Test results published in patent publication US20110045101A1, “FUNGICIDAL SUBSTITUTED AZOLES” (E.I. Du Pont De Nemours and Company, priority 2009, published 2011).
Marks after values point to notes of the source that are not given here.

Key:
Assay type in all cases: in vivo
Settings in all cases: 100 = 100% disease control
Botrytis cinerea = assay: Test C: tomato Botrytis on tomato seedlings, sprayed the day before inoculation, visual disease rating
Summary of the method: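 Rate: 200 ppm sprayed to run-off, corresponding to 500 g/ha; flagged values used 40 ppm. Vehicle was aqueous acetone (1:1) plus 250 ppm surfactant, compounds predissolved in acetone at 3% of volume. Plants were tomato seedlings.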

Alternaria solani = assay: Test D: tomato early blight, sprayed the day before inoculation, visual disease rating
Summary of the method: (§1)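 Plants received a run-off spray at 200 ppm (equivalent to 500 g/ha) or, for starred values, 40 ppm. Formulation used acetone at 3% of volume in a 50/50 acetone/water mix carrying 250 ppm Trem® 014.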

Septoria nodorum = assay: Test F: wheat glume blotch on wheat seedlings, sprayed the day before inoculation, visual disease rating
Summary of the method: as §1

Septoria tritici = assay: Test G: wheat leaf blotch on wheat seedlings, sprayed the day before inoculation, visual disease rating
Summary of the method: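 Seedlings receive a protective spray of test suspension in acetone/water carrying 250 ppm surfactant, mostly at 200 ppm and at 40 ppm where marked. They are inoculated the next day, kept saturated at 24° C for 48 h, then held at 20° C for 19 days before visual scoring.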

[1] = system: Puccinia recondita f. sp. tritici; assay: Test H: wheat leaf rust, test suspension sprayed after inoculation of wheat seedlings, visual disease rating
Summary of the method: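 Wheat seedlings inoculated with P. recondita spores, held 24 h saturated at 20 °C, then 2 days in growth chamber at 20 °C; compound suspension (acetone/water with Trem 014) sprayed to run-off afterwards. Rated visually; 200 ppm (≈500 g/ha) unless marked *, which denotes 40 ppm.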

[2] = system: Puccinia recondita f. sp. tritici; assay: Test I: wheat leaf rust on wheat seedlings, sprayed the day before inoculation, visual disease rating
Summary of the method: as §1

[3] = system: Erysiphe graminis f. sp. tritici; assay: Test J: wheat powdery mildew on wheat seedlings, sprayed the day before inoculation, visual disease rating
Summary of the method: as §1

[4] = 200 ppm, 0 = no control relative to controls

COc1cc(F)c(-c2c(C)nc(C)n2-c2ccc(C)cc2)c(F)c1 [compound 521]
Test C disease control rating (Botrytis cinerea; 40 ppm (marked *)): 99* % | Test D disease control rating (Alternaria solani; 40 ppm (marked *)): 99* % | Test F disease control rating (Septoria nodorum; 40 ppm (marked *)): 0* % | Test G disease control rating (Septoria tritici; 40 ppm (marked *)): 98* % | Test H disease control rating ([1]; 40 ppm (marked *)): 0* % | Test I disease control rating ([2]; 40 ppm (marked *)): 98* % | Test J disease control rating ([3]; 40 ppm (marked *)): 90* %

Cc1nc(Cl)n(-c2ccc(Cl)nc2)c1-c1c(F)cccc1F [compound 693]
Test C disease control rating (Botrytis cinerea; [4]): 100% | Test D disease control rating (Alternaria solani; [4]): 100% | Test F disease control rating (Septoria nodorum; [4]): 99% | Test G disease control rating (Septoria tritici; [4]): 99% | Test H disease control rating [1, 4]: 100% | Test I disease control rating [2, 4]: 100% | Test J disease control rating [3, 4]: 100%

Cc1ncn(-c2ccc(Cl)c(F)c2)c1-c1scnc1Cl [compound 376]
Test C disease control rating (Botrytis cinerea; [4]): 90% | Test D disease control rating (Alternaria solani; [4]): 0% | Test F disease control rating (Septoria nodorum; [4]): 0% | Test G disease control rating (Septoria tritici; [4]): 78% | Test H disease control rating [1, 4]: 0% | Test I disease control rating [2, 4]: 54% | Test J disease control rating [3, 4]: 67%

Cc1ncn(-c2ccc(Cl)c(F)c2)c1-c1cncc(Br)c1 [compound 346]
Test C disease control rating (Botrytis cinerea; [4]): 99% | Test D disease control rating (Alternaria solani; [4]): 0% | Test F disease control rating (Septoria nodorum; [4]): 0% | Test G disease control rating (Septoria tritici; [4]): 38% | Test H disease control rating [1, 4]: 9% | Test I disease control rating [2, 4]: 9% | Test J disease control rating [3, 4]: 0%

CN(C)c1ccc(-n2c(Br)nc(N(C)C)c2-c2c(F)cccc2F)cc1Br [compound 689]
Test C disease control rating (Botrytis cinerea; [4]): 0% | Test D disease control rating (Alternaria solani; [4]): 0% | Test F disease control rating (Septoria nodorum; [4]): 0% | Test G disease control rating (Septoria tritici; [4]): 0% | Test H disease control rating [1, 4]: 0% | Test I disease control rating [2, 4]: 0% | Test J disease control rating [3, 4]: 0%

COc1nc(Cl)ccc1-n1c(Cl)nc(Cl)c1-c1c(F)cccc1F [compound 619]
Test C disease control rating (Botrytis cinerea; [4]): 99% | Test D disease control rating (Alternaria solani; [4]): 53% | Test F disease control rating (Septoria nodorum; [4]): 0% | Test G disease control rating (Septoria tritici; [4]): 96% | Test H disease control rating [1, 4]: 51% | Test I disease control rating [2, 4]: 98% | Test J disease control rating [3, 4]: 99%

COc1cc(F)c(-c2c(Br)nc(Br)n2-c2ccc(F)cc2)c(F)c1 [compound 523]
Test C disease control rating (Botrytis cinerea; 40 ppm (marked *)): 100* % | Test D disease control rating (Alternaria solani; 40 ppm (marked *)): 100* % | Test F disease control rating (Septoria nodorum; 40 ppm (marked *)): 0* % | Test G disease control rating (Septoria tritici; 40 ppm (marked *)): 98* % | Test H disease control rating ([1]; 40 ppm (marked *)): 0* % | Test I disease control rating ([2]; 40 ppm (marked *)): 99* % | Test J disease control rating ([3]; 40 ppm (marked *)): 97* %

COc1cc(F)c(-c2c(Cl)nc(Cl)n2-c2cccc(OC(F)F)c2)c(F)c1 [compound 565]
Test C disease control rating (Botrytis cinerea; [4]): 100% | Test D disease control rating (Alternaria solani; [4]): 100% | Test F disease control rating (Septoria nodorum; [4]): 100% | Test G disease control rating (Septoria tritici; [4]): 96% | Test H disease control rating [1, 4]: 97% | Test I disease control rating [2, 4]: 100% | Test J disease control rating [3, 4]: 100%

Cc1nc(Cl)c(-c2c(F)ccc(F)c2F)n1-c1cccc(F)c1 [compound 369]
Test C disease control rating (Botrytis cinerea; [4]): 99% | Test D disease control rating (Alternaria solani; [4]): 100% | Test F disease control rating (Septoria nodorum; [4]): 98% | Test G disease control rating (Septoria tritici; [4]): 92% | Test H disease control rating [1, 4]: 74% | Test I disease control rating [2, 4]: 99% | Test J disease control rating [3, 4]: 99%

COc1cc(F)c(-c2c(Cl)nc(Cl)n2-c2ccc(C)cc2)c(F)c1Cl [compound 405]
Test C disease control rating (Botrytis cinerea; [4]): 99% | Test D disease control rating (Alternaria solani; [4]): 98% | Test F disease control rating (Septoria nodorum; [4]): 0% | Test G disease control rating (Septoria tritici; [4]): 100% | Test H disease control rating [1, 4]: 0% | Test I disease control rating [2, 4]: 98% | Test J disease control rating [3, 4]: 99%

Cn1c(-c2c(Br)nc(Br)n2-c2ccc(Cl)cc2)nc(Br)c1Br [compound 372]
Test C disease control rating (Botrytis cinerea; [4]): 99% | Test D disease control rating (Alternaria solani; [4]): 0% | Test F disease control rating (Septoria nodorum; [4]): 0% | Test G disease control rating (Septoria tritici; [4]): 91% | Test H disease control rating [1, 4]: 0% | Test I disease control rating [2, 4]: 74% | Test J disease control rating [3, 4]: 0%

CN(C)c1c(Cl)cc(-n2cnc(Cl)c2-c2c(F)cccc2F)cc1Cl [compound 652]
Test C disease control rating (Botrytis cinerea; 40 ppm (marked *)): 0* % | Test D disease control rating (Alternaria solani; 40 ppm (marked *)): 0* % | Test F disease control rating (Septoria nodorum; 40 ppm (marked *)): 0* % | Test G disease control rating (Septoria tritici; 40 ppm (marked *)): 0* % | Test H disease control rating ([1]; 40 ppm (marked *)): 6* % | Test I disease control rating ([2]; 40 ppm (marked *)): 0* % | Test J disease control rating ([3]; 40 ppm (marked *)): 0* %
